Laboratory results published in ChEMBL document CHEMBL4421718, “Quinoxaline derivatives as gpr6 modulators” (2015).

Key:
Mus musculus [1] = assay: Reversal of haloperidol-induced catalepsy in C57BL6 mouse model of Parkinson's disease assessed as reduction in catalepsy intensity index at 30 mg/kg, ip dosed along with haloperidol and measured after 30 mins relative to untreated control; type: functional; parameters: scale not given: the % may be the effect or the level left
Mus musculus [2] = assay: Reversal of haloperidol-induced catalepsy in C57BL6 mouse model of Parkinson's disease assessed as reduction in catalepsy intensity index at 30 mg/kg, ip dosed along with haloperidol and measured after 120 mins relative to untreated control; type: functional; parameters: scale not given: the % may be the effect or the level left
[3] = target: G-protein coupled receptor 6 (Homo sapiens, UniProt P46095); assay: Modulation activity at GPR6 receptor (unknown origin) expressed in CHO-K1 cells assessed as inhibition of constitutive cAMP activity incubated for 45 mins by Perkin Elmer Lance HTRF Ultrac-AMP assay; type: functional, cell-based
Sequence of G-protein coupled receptor 6 (P46095 whole entry): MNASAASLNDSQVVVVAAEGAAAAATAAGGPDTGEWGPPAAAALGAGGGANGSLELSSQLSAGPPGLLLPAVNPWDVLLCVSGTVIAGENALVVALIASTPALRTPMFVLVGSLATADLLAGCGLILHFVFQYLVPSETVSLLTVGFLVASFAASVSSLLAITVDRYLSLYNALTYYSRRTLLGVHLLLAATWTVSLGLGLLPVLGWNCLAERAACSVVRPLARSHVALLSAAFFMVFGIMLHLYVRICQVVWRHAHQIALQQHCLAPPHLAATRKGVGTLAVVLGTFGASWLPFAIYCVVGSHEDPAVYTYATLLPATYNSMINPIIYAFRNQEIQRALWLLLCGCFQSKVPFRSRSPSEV

Mus musculus [4] = assay: Reversal of haloperidol-induced catalepsy in C57BL6 mouse model of Parkinson's disease assessed as reduction in catalepsy intensity index at 10 mg/kg, ip dosed along with haloperidol and measured after 30 mins relative to untreated control; type: functional; parameters: scale not given: the % may be the effect or the level left
Mus musculus [5] = assay: Reversal of haloperidol-induced catalepsy in C57BL6 mouse model of Parkinson's disease assessed as reduction in catalepsy intensity index at 10 mg/kg, ip dosed along with haloperidol and measured after 120 mins relative to untreated control; type: functional; parameters: scale not given: the % may be the effect or the level left
Rattus norvegicus = assay: Reversal of haloperidol-induced catalepsy in Sprague-Dawley rat model of Parkinson's disease assessed as reduction in catalepsy intensity index at 10 mg/kg, sc dosed along with haloperidol and measured after 30 mins relative to untreated control; type: functional; parameters: scale not given: the % may be the effect or the level left
Mus musculus [6] = assay: Reversal of haloperidol-induced catalepsy in C57BL6 mouse model of Parkinson's disease assessed as reduction in catalepsy intensity index at 10 mg/kg, sc dosed along with haloperidol and measured after 120 mins relative to untreated control; type: functional; parameters: scale not given: the % may be the effect or the level left

Row | Compound | IC50 [3] [µM] | further results
1 | Clc1cccc(Cl)c1CN1CCN(c2nc3ccccc3nc2NC2CC2)CC1.O=C(O)C(F)(F)F |  | Activity (Mus musculus [1]): 40.4%; Activity (Mus musculus [2]): 29.6%
2 | N#Cc1ccc2nc(NC3CC3)c(N3CCN(Cc4cc(Cl)ccc4Cl)CC3)nc2c1 |  | Activity (Mus musculus [1]): 27.4%; Activity (Mus musculus [4]): 42%; Activity (Mus musculus [2]): 15.7%; Activity (Mus musculus [5]): 18.8%
3 | Cc1nncc2nc(N3CCC(Oc4ccc(F)cc4F)CC3)c(NC(C)C)nc12 | 0.031 | 
4 | Clc1cccc(CN2CCN(c3nc4ccccc4nc3Nc3cccnc3)CC2)c1.O=C(O)C(F)(F)F |  | Activity (Mus musculus [1]): 13.6%; Activity (Mus musculus [2]): 15.4%
5 | C[C@H](CO)Nc1nc2ccccc2nc1N1CCN(Cc2cc(Cl)ccc2Cl)CC1 | 1.57 | 
6 | Cc1nnc(C)c2nc(N3CCC(Oc4ccc(F)cc4F)CC3)c(NC(C)C)nc12 | 0.06 | 
7 | CC(C)Nc1nc2ccccc2nc1N1CCC(Oc2ccc(Cl)cc2F)CC1 | 0.051 | 
8 | N#Cc1ccc2nc(NC3CC3)c(N3CCC(Cc4ccc(F)cc4F)CC3)nc2c1.O=C(O)C(F)(F)F |  | Activity (Rattus norvegicus): 36.9%; Activity (Mus musculus [6]): 25.1%
9 | Clc1ccc(Cl)c(CN2CCN(c3nc4ccccc4nc3NC3CC3)CC2)c1.O=C(O)C(F)(F)F |  | Activity (Mus musculus [1]): 48.1%; Activity (Mus musculus [2]): 41.4%
10 | CC(C)Nc1nc2ccc(C#N)cc2nc1N1CCN(Cc2cc(Cl)ccc2Cl)CC1 | 0.31 | 

Further lines, with some results ahead:

Row | IC50 [3] [µM] | Compound | further results
11 | 0.145 | CC1CC1Nc1nc2cnncc2nc1N1CCC([C@@H](F)c2ccc(F)cc2F)CC1 (stereo partly specified) | 
12 | 0.054 | CN1CCN(C(=O)c2cc3nc(NC4CC4)c(N4CCC(C(=O)c5cc(C#N)ccc5F)CC4)nc3cn2)CC1 | 
13 | 1.1 | Fc1ccc(OC2CCN(c3nc4cnccc4nc3NC3CC3)CC2)c(F)c1 | 
14 | 0.114 | COc1ccc(OC2CCN(c3nc4c(N5CCOCC5)nccc4nc3NC3CC3)CC2)c(F)c1 | 
15 | 0.84 to 24.6 | Cc1cccc(CN2CCN(c3nc4ncccc4nc3NC3CC3)CC2)c1 | 
16 | 0.062 | Fc1ccc(F)c(CN2CCN(c3nc4cncc(Cl)c4nc3NC3CC3)CC2)c1 | 
17 | 10.1 to 17.7 | COc1ccc(C(=O)N2CCN(c3nc4ccccc4nc3NC3CC3)CC2)cc1Cl | 
18 | 0.082 | CC(C)Nc1nc2ccc(C#N)cc2nc1N1CCC([C@H](F)c2cc(F)ccc2F)CC1 | 
19 | 0.036 | COc1ccc(OC2CCN(c3nc4cnncc4nc3NC3CC3)CC2)c(F)c1 | 
20 | 0.021 | COc1ccc(C(=O)C2CCN(c3nc4cnccc4nc3NC3CC3)CC2)c(F)c1 | 
21 | 0.019 | Fc1ccc(CC2CCN(c3nc4cnccc4nc3NC3CC3)CC2)c(F)c1 | 
22 | 0.043 | COc1ccc(C(=O)C2CCN(c3nc4c(C#N)nccc4nc3NC3CC3)CC2)c(F)c1 | 
23 | 0.717 | COc1ccc(C(=O)C2CCN(c3nc4c(N5CCOCC5)nccc4nc3NC3CC3)CC2)c(F)c1 | 
24 | 0.021 | Fc1ccc(CN2CCN(c3nc4cnccc4nc3NC3CC3)CC2)c(F)c1 | 
